The text below walks through data of patent US9371320B2, “Heterocyclic compound” (TAKEDA PHARMACEUTICAL COMPANY LIMITED, priority 2012, dated 2016).

One test deals with T1, JAK1 (Homo sapiens, UniProt P23458).
T1 construct: purchased Invitrogen
As to the kind of experiment: JAK1 enzyme inhibition test (LANCE method). The format is biochemical. To be noted: for inhibition at 1 µM: test compound 1 μM, read-out: Inhibitory rate (%) JAK1 1 μM; for inhibition at 10 µM: read-out: Inhibitory rate (%) JAK1 10 μM. The method, boiled down: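 Reactions ran 1 h at room temperature in HEPES pH 7.5/MgCl2 buffer, with ATP solution at 150 μM and JAK1 and ULight peptide solutions at 187.5 ng/mL and 300 nM. Reactions were stopped with EDTA, and phosphorylation was read by Eu antibody time-resolved fluorescence at 665 nm. Inhibition was scaled to a no-enzyme control as 100%.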

The next test deals with T2, Tyk2 (Homo sapiens, UniProt P29597).
T2 construct: purchased Invitrogen
As to the kind of experiment: Tyk2 enzyme inhibition test (LANCE method). In kind it is biochemical. To be noted: for inhibition at 1 µM: read-out: Inhibitory rate (%) Tyk2 1 μM; for inhibition at 10 µM: test compound 10 μM, read-out: Inhibitory rate (%) Tyk2 10 μM. In outline: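 LANCE TR-FRET read-out (ex 340/em 665 nm, 100 μs delay) of ULight-JAK1 phosphorylation, with no-enzyme wells as 100% inhibition. Reaction run 1 h at room temperature in pH 7.5 HEPES buffer; enzyme 375 ng/mL, substrate 300 nM and ATP 30 μM are solution concentrations before mixing.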

Where [1] appears, read: test compound 10 μM (Ex. 182-220), beside Tyk2 1 μM.

Read-outs that look alike come from different tables or passages of the source.

T2 sequence (P29597 whole entry): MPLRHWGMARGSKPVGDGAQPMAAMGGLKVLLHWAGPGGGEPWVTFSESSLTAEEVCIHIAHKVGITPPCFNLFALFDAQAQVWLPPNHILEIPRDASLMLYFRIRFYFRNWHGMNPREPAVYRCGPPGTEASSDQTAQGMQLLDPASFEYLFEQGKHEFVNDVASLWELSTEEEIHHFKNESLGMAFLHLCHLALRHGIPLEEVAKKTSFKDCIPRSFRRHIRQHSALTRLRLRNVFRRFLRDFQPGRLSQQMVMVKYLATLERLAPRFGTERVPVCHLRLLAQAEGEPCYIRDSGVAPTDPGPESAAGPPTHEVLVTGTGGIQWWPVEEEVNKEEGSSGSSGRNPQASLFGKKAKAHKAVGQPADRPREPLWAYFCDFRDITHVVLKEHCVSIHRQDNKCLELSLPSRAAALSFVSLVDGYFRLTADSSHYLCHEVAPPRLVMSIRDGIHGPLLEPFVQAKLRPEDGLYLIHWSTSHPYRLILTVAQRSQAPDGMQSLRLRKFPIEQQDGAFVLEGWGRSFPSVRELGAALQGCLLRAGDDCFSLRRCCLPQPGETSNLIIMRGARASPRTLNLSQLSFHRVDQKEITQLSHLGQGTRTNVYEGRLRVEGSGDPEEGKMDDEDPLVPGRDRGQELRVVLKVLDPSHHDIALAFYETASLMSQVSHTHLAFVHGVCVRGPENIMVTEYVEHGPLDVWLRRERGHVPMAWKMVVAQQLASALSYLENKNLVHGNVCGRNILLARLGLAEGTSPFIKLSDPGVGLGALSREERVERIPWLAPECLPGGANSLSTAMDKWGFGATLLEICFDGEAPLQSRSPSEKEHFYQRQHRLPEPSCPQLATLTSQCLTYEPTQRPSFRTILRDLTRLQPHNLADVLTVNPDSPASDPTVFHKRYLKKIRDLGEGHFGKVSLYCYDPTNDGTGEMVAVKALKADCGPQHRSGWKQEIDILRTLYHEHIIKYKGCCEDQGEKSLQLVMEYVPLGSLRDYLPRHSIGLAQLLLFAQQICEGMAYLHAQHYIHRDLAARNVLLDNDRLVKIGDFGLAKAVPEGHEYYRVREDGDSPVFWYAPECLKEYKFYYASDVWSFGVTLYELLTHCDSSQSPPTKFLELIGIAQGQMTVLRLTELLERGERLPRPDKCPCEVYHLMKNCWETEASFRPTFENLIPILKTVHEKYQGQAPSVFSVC
T1 sequence (P23458 whole entry): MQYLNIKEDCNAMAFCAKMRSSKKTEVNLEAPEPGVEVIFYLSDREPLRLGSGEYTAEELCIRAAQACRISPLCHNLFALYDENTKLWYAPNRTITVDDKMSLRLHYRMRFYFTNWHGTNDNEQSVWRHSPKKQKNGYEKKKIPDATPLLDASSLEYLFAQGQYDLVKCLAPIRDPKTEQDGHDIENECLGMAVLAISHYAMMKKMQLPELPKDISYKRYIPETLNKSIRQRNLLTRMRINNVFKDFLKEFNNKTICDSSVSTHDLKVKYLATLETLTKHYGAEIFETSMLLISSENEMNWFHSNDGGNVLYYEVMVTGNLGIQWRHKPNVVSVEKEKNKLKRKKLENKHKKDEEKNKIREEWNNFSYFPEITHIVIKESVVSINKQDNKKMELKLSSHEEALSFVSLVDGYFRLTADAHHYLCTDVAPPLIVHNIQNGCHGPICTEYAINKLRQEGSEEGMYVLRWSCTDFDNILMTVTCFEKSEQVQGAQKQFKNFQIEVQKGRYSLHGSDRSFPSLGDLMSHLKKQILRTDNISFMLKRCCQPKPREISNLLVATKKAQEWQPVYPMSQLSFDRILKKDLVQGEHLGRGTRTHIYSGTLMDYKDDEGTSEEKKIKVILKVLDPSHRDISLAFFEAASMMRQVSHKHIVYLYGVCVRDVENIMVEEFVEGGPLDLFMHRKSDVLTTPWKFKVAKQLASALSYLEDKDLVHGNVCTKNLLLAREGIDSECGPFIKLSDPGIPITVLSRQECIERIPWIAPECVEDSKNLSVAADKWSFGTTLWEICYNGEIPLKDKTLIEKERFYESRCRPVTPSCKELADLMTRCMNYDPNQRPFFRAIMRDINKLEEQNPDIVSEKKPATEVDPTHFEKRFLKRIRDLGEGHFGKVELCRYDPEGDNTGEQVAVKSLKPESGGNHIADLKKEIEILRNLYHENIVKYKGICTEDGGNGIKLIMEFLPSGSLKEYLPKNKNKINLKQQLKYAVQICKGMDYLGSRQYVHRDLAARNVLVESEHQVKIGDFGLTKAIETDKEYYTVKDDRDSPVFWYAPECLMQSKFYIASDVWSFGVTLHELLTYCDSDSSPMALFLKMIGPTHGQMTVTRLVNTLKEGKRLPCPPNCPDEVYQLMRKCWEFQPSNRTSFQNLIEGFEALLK

For `N#CCOc1ccc(-c2nn(-c3c(F)cccc3F)c3c(Cl)c[nH]c(=O)c23)cc1` [Example 167, (4-(7-chloro-1-(2,6-difluorophenyl)-4-oxo-4,5-dihydro-1H-pyrazolo[4,3-c]pyridin-3-yl)phenoxy)acetonitrile], the values for the inhibition at 1 µM on JAK1 and on Tyk2 (test compound 1 μM) were 53% and 97%, respectively.

`C[C@H]1CCC[C@H]1n1cc(-c2csc(C(N)=O)c2)c2c(=O)[nH]ccc21` (relative stereo) [Example 85, 4-(1-(cis-2-methylcyclopentyl)-4-oxo-4,5-dihydro-1H-pyrrolo[3,2-c]pyridin-3-yl)thiophene-2-carboxamide]: the results for the inhibition at 1 µM on JAK1 and at Tyk2 (test compound 1 μM) were 90% and 100%, respectively.

For `N#Cc1c[nH]c(=O)c2c1c(C1CCCC1)nn2-c1csc(C(=O)O)c1` [Example 65, 4-(4-cyano-3-cyclopentyl-7-oxo-6,7-dihydro-1H-pyrazolo[3,4-c]pyridin-1-yl)thiophene-2-carboxylic acid], the inhibition at 1 µM worked out at 27% on JAK1 and 76% at Tyk2 (test compound 1 μM).

As to `N#CCOc1ccc(-c2cn(C3CCCC3)c3c(C#N)c[nH]c(=O)c23)cc1` [Example 121, 3-(4-(cyanomethoxy)phenyl)-1-cyclopentyl-4-oxo-4,5-dihydro-1H-pyrrolo[3,2-c]pyridine-7-carbonitrile], the figures for the inhibition at 1 µM at JAK1 and at Tyk2 (test compound 1 μM) were 87% and 97%, respectively.

With `CNC(=O)Cc1ccc(F)c(-c2nn(-c3c(F)cccc3F)c3cc[nH]c(=O)c23)c1` [Example 293, 2-(3-(1-(2,6-difluorophenyl)-4-oxo-4,5-dihydro-1H-pyrazolo[4,3-c]pyridin-3-yl)-4-fluorophenyl)-N-methylacetamide], the inhibition at 10 µM on JAK1 (test compound 10 μM) was determined as 0%; on Tyk2, 22%.

For `N#Cc1c[nH]c(=O)c2c(-c3csc(C(N)=O)c3)cn(C3CCCC3)c12` [Example 33, 4-(7-cyano-1-cyclopentyl-4-oxo-4,5-dihydro-1H-pyrrolo[3,2-c]pyridin-3-yl)thiophene-2-carboxamide], the inhibition at 1 µM at JAK1 and on Tyk2 (test compound 1 μM) was 99% each time.

With `C[C@@H]1COCCN1c1ccc(-c2nn(-c3c(F)cccc3F)c3cc[nH]c(=O)c23)cc1` [Example 246, 1-(2,6-difluorophenyl)-3-(4-((3R)-3-methylmorpholin-4-yl)phenyl)-1,5-dihydro-4H-pyrazolo[4,3-c]pyridin-4-one], the inhibition at 1 µM was determined as 94% on JAK1 and 99% on Tyk2 (test compound 1 μM).

As for `O=c1[nH]ccc2c1c(-c1ccc(F)cc1)nn2C1CCCC1` [Example 54, 1-cyclopentyl-3-(4-fluorophenyl)-1,5-dihydro-4H-pyrazolo[4,3-c]pyridin-4-one], the inhibition at 1 µM on JAK1 and on Tyk2 (test compound 1 μM) was 91% each time.

In the case of `COCCN(C)c1ccc(-c2nn(-c3c(F)cccc3F)c3c(Cl)c[nH]c(=O)c23)cc1` [Example 241, 7-chloro-1-(2,6-difluorophenyl)-3-(4-((2-methoxyethyl)(methyl)amino)phenyl)-1,5-dihydro-4H-pyrazolo[4,3-c]pyridin-4-one], the inhibition at 1 µM at JAK1 is 53%; at Tyk2 (test compound 1 μM), 98%.

As to `O=C(NN1CCOCC1)c1cc(-c2nn(-c3c(F)cccc3F)c3c(Cl)c[nH]c(=O)c23)cs1` [Example 193, 4-(7-chloro-1-(2,6-difluorophenyl)-4-oxo-4,5-dihydro-1H-pyrazolo[4,3-c]pyridin-3-yl)-N-(morpholin-4-yl)thiophene-2-carboxamide], the inhibition at 10 µM at JAK1 (setting [1]) was 99%. In addition, on Tyk2 (test compound 1 μM), the inhibition at 1 µM was found to be 100%.

For `NC(=O)c1cc(F)cc(-c2nn(-c3c(F)cccc3F)c3cc[nH]c(=O)c23)c1` [Example 268, 3-(1-(2,6-difluorophenyl)-4-oxo-4,5-dihydro-1H-pyrazolo[4,3-c]pyridin-3-yl)-5-fluorobenzamide], the inhibition at 1 µM was 4% on JAK1 and 33% on Tyk2 (test compound 1 μM).

For `CNC(=O)c1ccc(-c2nn(-c3c(F)cccc3F)c3c(Cl)c[nH]c(=O)c23)cc1` [Example 194, 4-(7-chloro-1-(2,6-difluorophenyl)-4-oxo-4,5-dihydro-1H-pyrazolo[4,3-c]pyridin-3-yl)-N-methylbenzamide], the inhibition at 10 µM at JAK1 (setting [1]) was 67%. Moreover, the inhibition at 1 µM at Tyk2 (test compound 1 μM) was found to be 100%.

Consider `CN1CCN(c2ccc(-c3nn(-c4c(F)cccc4F)c4cc[nH]c(=O)c34)cc2)C1=O` [Example 240, 1-(2,6-difluorophenyl)-3-(4-(3-methyl-2-oxoimidazolidin-1-yl)phenyl)-1,5-dihydro-4H-pyrazolo[4,3-c]pyridin-4-one], for which the inhibition at 1 µM at JAK1 was determined as 88%; on Tyk2 (test compound 1 μM), 99%.

Turning to `NC(=O)c1ccc(-c2nn(-c3c(F)cccc3F)c3c(Cl)c[nH]c(=O)c23)cc1F` [Example 215, 4-(7-chloro-1-(2,6-difluorophenyl)-4-oxo-4,5-dihydro-1H-pyrazolo[4,3-c]pyridin-3-yl)-2-fluorobenzamide], on JAK1 (setting [1]), the inhibition at 10 µM is 22%. Also, the inhibition at 1 µM at Tyk2 (test compound 1 μM) is 94%.

As to `NC(=O)c1cccc(-c2nn(-c3c(F)cccc3F)c3cc[nH]c(=O)c23)c1` [Example 255, 3-(1-(2,6-difluorophenyl)-4-oxo-4,5-dihydro-1H-pyrazolo[4,3-c]pyridin-3-yl)benzamide], the inhibition at 1 µM is 93% at JAK1 and 98% at Tyk2 (test compound 1 μM).

Regarding `CC1(O)CCC(n2nc(-c3ccc(S(N)(=O)=O)cc3)c3c(=O)[nH]ccc32)CC1` (stereo not shown) [Example 197, 4-(1-(4-hydroxy-4-methylcyclohexyl)-4-oxo-4,5-dihydro-1H-pyrazolo[4,3-c]pyridin-3-yl)benzenesulfonamide], the “Inhibitory rate (%) JAK1 10 μM” value at JAK1 (setting [1]) came to 99%. In addition, at Tyk2 (test compound 1 μM), the “Inhibitory rate (%) Tyk2 1 μM” value stood at 98%.

On to `CCC(CC)n1cc(-c2csc(C(=O)OC)c2)c2c(=O)[nH]ccc21` [Example 7, methyl 4-(4-oxo-1-(pentan-3-yl)-4,5-dihydro-1H-pyrrolo[3,2-c]pyridin-3-yl)thiophene-2-carboxylate], for which the values for the inhibition at 1 µM at JAK1 and at Tyk2 (test compound 1 μM) were 95% and 90%, respectively.

As to `O=c1[nH]cc(Br)c2c1c(-c1ccc(N3CCOCC3)cc1)nn2-c1c(F)cccc1F` [Example 218, 7-bromo-1-(2,6-difluorophenyl)-3-(4-(morpholin-4-yl)phenyl)-1,5-dihydro-4H-pyrazolo[4,3-c]pyridin-4-one], on JAK1 (setting [1]), the inhibition at 10 µM is 85%. Also, the inhibition at 1 µM on Tyk2 (test compound 1 μM) amounted to 99%.

In the case of `O=c1[nH]cc(Cl)c2c1c(-c1ccc(N3CCS(=O)(=O)CC3)cc1)nn2-c1c(F)cccc1F` [Example 242, 7-chloro-1-(2,6-difluorophenyl)-3-(4-(1,1-dioxidothiomorpholin-4-yl)phenyl)-1,5-dihydro-4H-pyrazolo[4,3-c]pyridin-4-one], the results for the inhibition at 1 µM at JAK1 and on Tyk2 (test compound 1 μM) were 27% and 97%, respectively.

As for `N#Cc1c[nH]c(=O)c2c1c(C1CCCC1)cn2-c1csc(C(N)=O)c1` [Example 118, 4-(4-cyano-3-cyclopentyl-7-oxo-6,7-dihydro-1H-pyrrolo[2,3-c]pyridin-1-yl)thiophene-2-carboxamide], the inhibition at 1 µM was 94% at JAK1 and 99% on Tyk2 (test compound 1 μM).

For `CC1(Cn2nc(-c3csc(C(N)=O)c3)c3c(=O)[nH]ccc32)COC1` [Example 141, 4-(1-((3-methyloxetan-3-yl)methyl)-4-oxo-4,5-dihydro-1H-pyrazolo[4,3-c]pyridin-3-yl)thiophene-2-carboxamide], the inhibition at 1 µM at JAK1 was determined as 99%; at Tyk2 (test compound 1 μM), 92%.

Take `CC1(C)OCC(Cn2cc(-c3ccc(S(N)(=O)=O)cc3)c3c(=O)[nH]ccc32)O1` (stereo not shown) [Example 90, 4-(1-((2,2-dimethyl-1,3-dioxolan-4-yl)methyl)-4-oxo-4,5-dihydro-1H-pyrrolo[3,2-c]pyridin-3-yl)benzenesulfonamide]: the inhibition at 10 µM was 38% on JAK1 (test compound 10 μM) and 22% on Tyk2.

In the case of `O=C1CCCN1c1ccc(-c2nn(-c3c(F)cccc3F)c3cc[nH]c(=O)c23)cc1` [Example 292, 1-(2,6-difluorophenyl)-3-(4-(2-oxopyrrolidin-1-yl)phenyl)-1,5-dihydro-4H-pyrazolo[4,3-c]pyridin-4-one], the inhibition at 1 µM at JAK1 stood at 97%; on Tyk2 (test compound 1 μM), 99%.

Regarding `N#Cc1c[nH]c(=O)c2c(-c3cccc(CC(N)=O)c3)cn(C3CCCC3)c12` [Example 110, 2-(3-(7-cyano-1-cyclopentyl-4-oxo-4,5-dihydro-1H-pyrrolo[3,2-c]pyridin-3-yl)phenyl)acetamide], the inhibition at 1 µM on JAK1 came to 46%; at Tyk2 (test compound 1 μM) it was 91%.

Turning to `CCC(COC)n1cc(-c2ccc(C(N)=O)cc2)c2c(=O)[nH]ccc21` (stereo not shown) [Example 26, 4-(1-(1-methoxybutan-2-yl)-4-oxo-4,5-dihydro-1H-pyrrolo[3,2-c]pyridin-3-yl)benzamide], the figures for the inhibition at 1 µM at JAK1 and on Tyk2 (test compound 1 μM) were 20% and 41%, respectively.

As to `Cc1c[nH]c(=O)c2c(-c3ccc(N4CCOCC4)cc3)nn(-c3c(F)cccc3F)c12` [Example 235, 1-(2,6-difluorophenyl)-7-methyl-3-(4-(morpholin-4-yl)phenyl)-1,5-dihydro-4H-pyrazolo[4,3-c]pyridin-4-one], the inhibition at 1 µM was 92% on JAK1 and 99% on Tyk2 (test compound 1 μM).
